# How the values were obtained:
# yeast tps1Δ strain = experiment: Growth (rescue) of the yeast tps1Δ strain on galactose with or without glucose; format: cell-based, S. cerevisiae
# Experimental: Growth curves were made by measuring OD595 in a 96-well plate using the Multiskan™ FC Microplate Photometer (Thermo Fisher Scientific). Typically, for tps1Δ rescue experiments, cells were (pre)grown in Complete Synthetic medium containing 110 mM galactose. Compounds were always added 10 min prior to glucose addition to ensure maximal interaction between the cells and compounds. Cells originating from the preculture were harvested, washed in medium without sugar, after which they were resuspended to an OD of 0.1 in 200 µL of the appropriate medium. At least three technical replicates were included per condition. OD595 was measured at 30°C every 30 min with a 10-min shaking interval.
# [1] = tested on: A549 lung adenocarcinoma cells; experiment: Proliferation of A549 lung adenocarcinoma cells; format: cell-based, human; details: for relative potency in reducing maximal growth rate of A549 cells: 1 mM glucose, 6.25-50 µM
# Experimental: For both adherent A549 and MCF10A H-RAS^V12 cell lines, growth curves were established using the IncuCyte® ZOOM technology. By collecting phase contrast images, the IncuCyte® software provides a calculated confluency percentage from which growth curves can be deducted. The cell number/density was measured by calculating the confluency of phase objects (cells) sticking on the bottom of the well. Cells were seeded at a density of 1000 - 1500 cells/well in a Nunc-Edge™ 96-well plate (Thermo Fisher Scientific) and growth was typically measured over 3 to 5 days. For the measurement of apoptosis induction using the MCF10A H-RAS^V12 cell line, the IncuCyte® Caspase-3/7 green dye was added to the medium in the recommended concentration at the beginning of the growth curve experiment. Apoptosis was detected by taking fluorescent images by excitation at 488 nm followed by IncuCyte® software analysis. Cell growth of the KMS-12-PE multiple myeloma cell line, which grows in suspension, was measured by manual cell counting. Cells were initially seeded at a density of 10^4 cells/well and incubated for 4 days after which the cell number was counted. For all cell lines, the same medium used for pregrowth was also used for the growth curve experiment, albeit with different glucose concentrations depending on the experimental design. With compound administration, the final concentration of DMSO never exceeded 0.1%. Typically, at least four technical repeats were included per condition.
# [2] = tested on: 2-deoxyglucose uptake in A549 lung adenocarcinoma cells; experiment: 2-deoxyglucose uptake in A549 lung adenocarcinoma cells; format: cell-based, human
# Experimental: Zero-trans glucose uptake in A549 cells was approximated by measuring the uptake of [1,2-^3H]2-deoxyglucose. For this purpose, A549 cells were pregrown in RPMI medium containing 10 mM glucose in a 24-well plate to a cell density of around 100,000 cells/well. Prior to adding radioactive label, cells were gently washed twice in Krebs-Ringer-HEPES buffer (50 mM HEPES pH 7.4, 137 mM NaCl, 4.7 mM KCl, […], 1.3 mM MgSO4 and 0.1% w/v BSA) at 30°C to remove any residual sugar. RPMI medium without sugar containing the compound intended for treatment, was added to the cells for 15 min at 37°C to allow adequate interaction of the cells with the compound. The uptake measurement was initiated by adding an equal volume of medium containing radiolabeled 2DG. After 3 - 4 min incubation at 37°C, medium was aspirated and cells were gently washed three times with ice-cold Krebs-Ringer-HEPES buffer. Cells were lysed by adding 200 µL of ice-cold 0.1 M NaOH solution and incubating the plate for 10 min at 37°C. Cell lysates were transferred to scintillation vials for subsequent scintillation counting. For blank measurements, cells were incubated with 50 µM Cytochalasin B prior to the uptake measurement.
# [3] = tested on: A549 lung adenocarcinoma cells; experiment: Glucose consumption and lactate production over 8 h, A549; format: cell-based, human; details: A549, 25 µM, 1 mM glucose
# Experimental: The influence of WBC compounds on glucose consumption over a longer time period was studied in the A549 adenocarcinoma and KMS-12-PE multiple myeloma cell lines. As such, different parameters needed to be optimized depending on whether cells were adherent or in suspension. As such, A549 cells were incubated at 125,000 cells/well in a 24-well plate in 300 µL RPMI medium for 8 h. For the KMS-12-PE cell line, 100,000 cells/well were incubated in 100 µL RPMI medium in a 96-well plate for 8 h. Medium was collected, spun down and HPLC-analyzed for measuring glucose and lactate levels. Metabolite levels were corrected for cell number, which always varied little over the span of 8 h. For every condition, at least 4 technical repeats were included.
# female NMRI-nu mice = experiment: In vivo toxicity and tolerability in mice; details: for abnormalities / toxic effects in liver and other organs at autopsy: daily i.p., toxic effects at 20 mg/kg WBC-15C and at 20 and 10 mg/kg WBC-11C, not at lower doses; for loss in body weight: daily intraperitoneal injection, 5, 10 and 20 mg/kg; for AST/ALT ratio vs vehicle: sera after 20 days, 5, 10, 20 mg/kg daily i.p.; for blood glucose level vs vehicle: sera post-mortem after 20 days, 5, 10, 20 mg/kg daily i.p.
# Experimental: Warbicin ® in vivo toxicity and tolerability was examined by subjecting female NMRI-nu mice (12 weeks old) to daily intraperitoneal injection of either WBC-A, WBC-15C, WBC-4C or WBC-11C. Compounds were dosed at either 5 mg/kg, 10 mg/kg or 20 mg/kg over a period of 20 days. Three mice were used per condition. To evaluate toxicity, change in body weight was registered daily. As a humane endpoint, mice that lost more than 20% of their original body weight were prematurely sacrificed. In addition, liver function was examined by measuring the ratio of the AST to ALT enzyme activities (AbCam ab105135, ab105134) in sera samples collected at the end of the experiment. Furthermore, the blood glucose level in mice sera was determined using the colorimetric GOD-PAP method. Due to their considerable hydrophobicity, the compounds were dissolved in a sterilized 1xPBS, 5% DMSO and 5% Tween-80 solution until a homogenous suspension was obtained that could be administered in a reproducible way.
# [4] = Solubility of compound stocks; format: physicochemical; details: 100% DMSO
# Experimental: WBC-A and the complete structural analog library ( Supplementary Table 2 ) were purchased from different vendors, i.e. Enamine (n = 185), Life Chemicals (n = 10), LabNetwork (n = 4) and Uorsy (n = 4). WBC compounds in general are very insoluble in aqueous solutions, challenging their solubilization. Throughout this work, WBC compounds were always stock aliquoted at 50 mM concentration in 100% DMSO. In many cases, gentle sonication and heating up to 37°C was necessary to completely solubilize the compound stocks. Whereas WBC-A, -15C, -4C and -11C could be dissolved at 50 mM, some structural analogs remained in smooth or rough suspension, regardless of the concentration. Even though it is recommended to aliquot compound stocks, no significant decrease in compound strength by repeated freeze and thaw cycles in DMSO was observed.
SMILES,Rescue of the tps1∆ strain on 2.5 mM glucose at 100 µM (yeast tps1Δ strain),Minimal rescue concentration for growth of tps1∆ cells on 2.5 mM glucose (yeast tps1Δ strain),Selected from primary screen for growth inhibition of A549 cells at 50 µM ([1]; RPMI 1 mM glucose),relative potency in reducing maximal growth rate of A549 cells [1],"Selected for having an IC50 ratio (10 mM glucose : 1 mM glucose) of A549 growth higher than WBC-A ([1]; ratio of IC50 on 10 mM and 1 mM glucose, compared to WBC-A)",type of inhibition of 2-deoxyglucose uptake (Lineweaver-Burk) [2],inhibition of glucose consumption and lactate production [3],abnormalities / toxic effects in liver and other organs at autopsy (female NMRI-nu mice; 20 days),"adipose tissue at autopsy (female NMRI-nu mice; nude mice, daily i.p., 5, 10 and 20 mg/kg, 20 days, visual inspection vs vehicle)","loss in body weight (female NMRI-nu mice; nude mice, 20 days)",AST/ALT ratio vs vehicle (female NMRI-nu mice),blood glucose level vs vehicle (female NMRI-nu mice),concentration at which compound could be dissolved [4],rescue of growth on galactose in the presence of 5 mM glucose (yeast tps1Δ strain; 100 μM),restoration of growth in the presence of 7.5 mM glucose (yeast tps1Δ strain; 100 μM),"inhibition of A549 growth ([1]; RPMI 1 mM glucose, 12.5 µM)","inhibition of A549 growth ([1]; RPMI 1 mM glucose, concentrations higher than 12.5 µM (25, 50 µM))","inhibition of A549 growth ([1]; RPMI 1 mM or 5 mM glucose, 12.5-50 µM, more pronounced for 1 mM)",K'i for 2-deoxyglucose uptake ([2]; Dixon plot (Ki = K'i) or Cornish-Bowden plot (WBC-11C)),Ki ([2]; read-out: Ki for 2-deoxyglucose uptake (Dixon plot))
Cc1nc(SCC(=O)c2ccc3c(c2)NC(=O)CO3)c2c(-c3cccs3)csc2n1 [WBC-11C],Yes,50 µM,Yes,most,Higher IC50 ratio and confirmed,uncompetitive,inhibited glucose consumption and lactate production,toxic effects were seen in the liver and other organs,adipose tissue was also observed in between the intestines,small transient drop,No significant difference,No significant difference,≥ 50000 µM,–,–,–,–,–,–,–
Cc1nc(Sc2nnc3n2CCCCC3)c2c(-c3cccs3)csc2n1 [WBC-A],Yes,25 µM,Yes,intermediate potency,–,noncompetitive type of inhibition,did not cause inhibition,No other abnormalities,–,no significant loss in body weight,No significant difference,No significant difference,≥ 50000 µM,rescued growth,not able to restore growth,pronounced inhibition,completely blocked continued cancer cell proliferation,dose-dependent inhibition of growth,52.78 µM,52.8 µM

# — publication PMC11374660, “The novel family of Warbicin® compounds inhibits glucose uptake both in yeast and human cells and restrains cancer cell proliferation” (Frontiers in Oncology, 2024)
